Experimental data published in patent US20100022629A1, “Dietary Methods and Compositions for Enhancing Metabolism and Reducing Reactive Oxygen Species” (Elixirin, priority 2006, published 2010).

Columns and labels:
[1] = system: men and women diagnosed with a recent MI; details: 4 grams/day for 12 months plus standard pharmacological treatment; control group 12.5%; cited from earlier work
Fischer 344 male rats = test: Morris water maze spatial memory test; format: in vivo; details: fed 7 weeks, 5 per group, SD around 20%
Excerpt: FIG. 1 of 2 depicts measurements of spatial memory in (Fischer 344 male rats) subjected to a water maze test, after treatment with carnitine, lipoic acid, and/or polyphenol. […] The Morris maze task tests spatial memory by requiring rats to find a submerged platform in a pool of water using external visual cues (Morris, R. 1984; J. Neurosci. Methods, 11:47-60; Schenk, F. and Morris, R, Exp. Brain Res. 58:11-28, 1985). The rats in the experimental group (5 each) were fed either 0.5% (wt/vol) acetyl-L-carnitine in water, 1.0% (wt/vol) polyphenol in water; 0.2% (wt/wt) lipoic acid in AIN93M diet, or a combination of the above. Rats were acclimated for one week before experiments. Rats were fed for the above treatment for 7 weeks before tests. Trials (4 consecutive days, 4 trials per day) were conducted and the results averaged. The standard deviation is around 20%. Control rats were fed with water and AIN93M diet only.

[2] = system: 8-hydroxy-2′-deoxyguanosine/8-hydroxyguanosine; test: Oxidation level of DNA in hippocampus sections (anti-8-hydroxy-2′-deoxyguanosine/8-hydroxyguanosine immunocytochemistry); format: in vivo, rats; details: rat hippocampus, fed 7 weeks, mean of 5 animals, SD about 15%
Excerpt: The rats in the experimental group (5 each) were fed either 0.5% (wt/vol) acetyl-L-carnitine in water, 1.0% (wt/vol) polyphenol in water; 0.2% (wt/wt) lipoic acid in AIN93M diet, or a combination of the above. Rats were acclimated for one week before experiments. Rats were fed for the above treatment for 7 weeks before tests. Control rats were fed with water and AIN93M diet only. For assaying DNA oxidation, rats from each treatment group (5 animals per group) was anesthetized with ether and perfused with paraformaldehyde. The brain was removed and postfixed for paraffin sections. Sections of hippocampus were incubated with anti-8-hydroxy-2′-deoxyguanosine/8-hydroxyguanosine and visualized by using standard immunocytochemical methods. Quantification of oxidation was done as described in Liu, J K, et al., (Proc. Natl. Acad. Sci. USA, 99:[…], 2002). Values are a mean of 5 animals. The standard deviation is about 15%.

| Compound | mortality after one year of treatment [1] [%] | mastery of the water maze over no treatment (Fischer 344 male rats) | DNA oxidation level compared with rats having no treatment [2] |
| --- | --- | --- | --- |
| C[N+](C)(C)C[C@H](O)CC(=O)[O-] [L-carnitine] | 1.2 | – | – |
| C[N+](C)(C)CC(O)CC(=O)[O-] (centres unmarked) [carnitine] | – | approximately 80% | approximately 112% |
| O=C(O)CCCCC1CCSS1 (centres unmarked) [lipoic acid, 1,2-dithiolane-3-pentanoic acid] | – | ~79% | ~82% |
